Reference: patent US20230058961A1, “SUBSTITUTED HETEROCYCLICS WITH THERAPEUTIC ACTIVITY IN HIV” (New York Blood Center, Inc., priority 2019, published 2023)

Experiments:
in vitro = details: human
pseudovirus HIV-1 HXB2 = experiment: microbe, parasite or virus in culture; type: cell-based
[1] = Human immunodeficiency virus 1, HXB2, TZM-bl, anti-HIV-1 activity, single-cycle assay, TZM-bl cells, pseudovirus HIV-1 HXB2, read-out: IC50
[2] = anti-HIV-1 activity, single-cycle assay, TZM-bl cells, pseudovirus HIV-1 HXB2, read-out: IC50
[3] = CC50, cytotoxicity, TZM-bl cells, MTS, 3 days

Row | Compound | CC50 at 3 days (in vitro; CC50) [µM] | IC50 (pseudovirus HIV-1 HXB2; [1]) [µM] | IC50 (pseudovirus HIV-1 HXB2; TZM-bl) [µM] | IC50 (pseudovirus HIV-1 HXB2; [2]) [µM] | CC50 at 3 days (in vitro; [3]) [µM]
1 | Cc1cc(-c2ccc(C(F)(F)F)cn2)[nH]c1C(=O)NC(C)(CN)c1nc(CO)cs1 (racemic) [Compound 31, N-(1-Amino-2-(4-(hydroxymethyl)thiazol-2-yl)propan-2-yl)-3-methyl-5-(5-(trifluoromethyl)-pyridin-2-yl)-1H-pyrrole-2-carboxamide] | > 68.3 | 2.6 ± 0.4 | – | – | –
2 | CC(CN)(NC(=O)c1ccc(-c2ccc(C(F)(F)F)cn2)[nH]1)c1nc(CO)cs1 (racemic) [Compound 32, N-(1-Amino-2-(4-(hydroxymethyl)thiazol-2-yl)propan-2-yl)-5-(5-(trifluoromethyl)pyridin-2-yl)-1H-pyrrole-2-carboxamide] | > 70.5 | 5.1 ± 0.4 | – | – | –
3 | NCC(NC(=O)c1ccc(-c2ccc(C(F)(F)F)c(F)c2)[nH]1)c1ncc(CO)s1 (centres unmarked) [Comparator A, reference compound] | 21.9 | – | 0.089 | – | –
4 | NCC(NC(=O)c1ccc(-c2ccc(C(F)(F)F)cc2)[nH]1)c1ncc(CO)s1 (centres unmarked) [Comparator B, reference compound] | 34 | – | – | – | –
5 | NCC(NC(=O)c1ccc(-c2ccc(Cl)cn2)[nH]1)c1ncc(CO)s1 (centres unmarked) [Compound 2, N-(2-Amino-1-(5-(hydroxymethyl)thiazol-2-yl)ethyl)-5-(5-chloropyridin-2-yl)-1H-pyrrole-2-carboxamide] | 142 ± 1.7 | – | – | 2.7 ± 0.7 | –
6 | Cc1cc(-c2ccc(Cl)cn2)[nH]c1C(=O)NC(CN)c1ncc(CO)s1 (centres unmarked) [Compound 3, N-(2-Amino-1-(5-(hydroxymethyl)thiazol-2-yl)ethyl)-5-(5-chloropyridin-2-yl)-3-methyl-1H-pyrrole-2-carboxamide] | 98.3 ± 4 | 1.2 ± 0.1 | – | – | –
7 | NCC(NC(=O)c1ccc(-c2ccc(C(F)(F)F)cn2)[nH]1)c1ncc(CO)s1 (centres unmarked) [Compound 5, N-(2-Amino-1-(5-(hydroxymethyl)thiazol-2-yl)ethyl)-5-(5-(trifluoromethyl)pyridin-2-yl)-1H-pyrrole-2-carboxamide] | > 122 | < 1 | – | 0.96 | –
8 | Cc1cc(-c2ccc(C(F)(F)F)cn2)[nH]c1C(=O)NC(CN)c1ncc(CO)s1 (centres unmarked) [Compound 7, N-(2-amino-1-(5-(hydroxymethyl)thiazol-2-yl)ethyl)-3-methyl-5-(5-(trifluoromethyl)pyridin-2-yl)-1H-pyrrole-2-carboxamide] | 92.8 ± 2.4 | < 1 | – | – | –
9 | Cc1cc(-c2ccc(C(F)(F)F)cn2)[nH]c1C(=O)NC(c1ncc(CO)s1)C(C)(C)N (centres unmarked) [Compound 11, N-(2-Amino-1-(5-(hydroxymethyl)thiazol-2-yl)-2-methylpropyl)-3-methyl-5-(5-(trifluoro-methyl)pyridin-2-yl)-1H-pyrrole-2-carboxamide] | 35.3 ± 2 | – | – | 0.6 ± 0.2 | < 50
10 | NCC(NC(=O)c1ccc(-c2ccc(C(F)(F)F)cn2)[nH]1)c1ncc(C(O)CO)s1 (centres unmarked) [Compound 13, N-(2-Amino-1-(5-(1,2-dihydroxyethyl)thiazol-2-yl)ethyl)-5-(5-(trifluoromethyl)pyridin-2-yl)-1H-pyrrole-2-carboxamide] | > 113 | – | – | 2.1 ± 0.3 | > 100
11 | NCC(NC(=O)c1ccc(-c2ccc(Cl)cn2)[nH]1)c1nc(CO)cs1 (centres unmarked) [Compound 15, N-(2-Amino-1-(4-(hydroxymethyl)thiazol-2-yl)ethyl)-5-(5-chloropyridin-2-yl)-1H-pyrrole-2-carboxamide] | > 132 | – | – | 5 ± 0.5 | > 100
12 | NCC(NC(=O)c1ccc(-c2ccc(F)cn2)[nH]1)c1nc(CO)cs1 (centres unmarked) [Compound 17, N-(2-Amino-1-(4-(hydroxymethyl)thiazol-2-yl)ethyl)-5-(5-fluoropyridin-2-yl)-1H-pyrrole-2-carboxamide] | > 138 | > 10 | – | > 11 | > 100
13 | Cc1ccc(-c2ccc(C(=O)NC(CN)c3nc(CO)cs3)[nH]2)nc1 (centres unmarked) [Compound 19, N-(2-Amino-1-(4-(hydroxymethyl)thiazol-2-yl)ethyl)-5-(5-methylpyridin-2-yl)-1H-pyrrole-2-carboxamide] | > 140 | – | – | 9.6 ± 1.2 | > 100
14 | NCC(NC(=O)c1ccc(-c2ccc(C(F)(F)F)cn2)[nH]1)c1nc(CO)cs1 (centres unmarked) [Compound 21, N-(2-Amino-1-(4-(hydroxymethyl)thiazol-2-yl)ethyl)-5-(5-(trifluoromethyl)pyridin-2-yl)-1H-pyrrole-2-carboxamide] | 96 ± 6 | – | – | 0.5 | –
15 | CC(C)(N)C(NC(=O)c1ccc(-c2ccc(C(F)(F)F)cn2)[nH]1)c1nc(CO)cs1 (centres unmarked) [Compound 23, N-(2-Amino-1-(4-(hydroxymethyl)thiazol-2-yl)-2-methylpropyl)-5-(5-(trifluoromethyl)pyridin-2-yl)-1H-pyrrole-2-carboxamide] | 61 ± 6.5 | – | – | 1.73 | < 50
16 | NCC(NC(=O)c1ccc(-c2ccc(C(F)(F)F)cn2)[nH]1)c1nc(CCO)cs1 (centres unmarked) [Compound 25, N-(2-Amino-1-(4-(2-hydroxyethyl)thiazol-2-yl)ethyl)-5-(5-(trifluoromethyl)pyridin-2-yl)-1H-pyrrole-2-carboxamide] | 100 ± 7 | – | – | 1.7 | –
17 | NCC(NC(=O)c1ccc(-c2ccc(C(F)(F)F)cn2)[nH]1)c1nc(C(O)CO)cs1 (centres unmarked) [Compound 29, N-(2-Amino-1-(4-(1,2-dihydroxyethyl)thiazol-2-yl)ethyl)-5-(5-(trifluoromethyl)pyridin-2-yl)-1H-pyrrole-2-carboxamide] | > 113 | 5.2 ± 0.9 | – | – | > 100
18 | NCC(NC(=O)c1ccc(-c2ccc(C(F)(F)F)cn2)[nH]1)c1nc(CO)c(CO)s1 (centres unmarked) [Compound 35, N-(2-Amino-1-(4,5-bis(hydroxymethyl)thiazol-2-yl)ethyl)-5-(5-(trifluoromethyl)pyridin-2-yl)-1H-pyrrole-2-carboxamide] | > 113 | – | – | 1.8 | –
19 | NCC(NC(=O)c1ccc(-c2ccc(C(F)(F)F)cn2)[nH]1)c1nccs1 (centres unmarked) [Compound 37, N-(2-Amino-1-(thiazol-2-yl)ethyl)-5-(5-(trifluoromethyl)pyridin-2-yl)-1H-pyrrole-2-carboxamide] | 89.3 ± 1 | 2 ± 0.2 | – | – | –
20 | NCC(NC(=O)c1ccc(-c2ccc(Cl)nc2)[nH]1)c1nc(CO)cs1 (centres unmarked) [Compound 39, N-(2-Amino-1-(4-(hydroxymethyl)thiazol-2-yl)ethyl)-5-(6-chloropyridin-3-yl)-1H-pyrrole-2-carboxamide] | > 132 | > 10 | – | > 11 | > 100
21 | NCC(NC(=O)c1ccc(-c2ccc(C(F)(F)F)nc2)[nH]1)c1nc(CO)cs1 (centres unmarked) [Compound 41, N-(2-Amino-1-(4-(hydroxymethyl)thiazol-2-yl)ethyl)-5-(6-(trifluoromethyl)pyridin-3-yl)-1H-pyrrole-2-carboxamide] | > 122 | > 10 | – | 12.7 ± 2.8 | > 100
22 | NCC(NC(=O)c1ccc(-c2ccc(C(F)(F)F)nn2)[nH]1)c1nc(CO)cs1 (centres unmarked) [Compound 43, N-(2-Amino-1-(4-(hydroxymethyl)thiazol-2-yl)ethyl)-5-(6-(trifluoromethyl)pyridazin-3-yl)-1H-pyrrole-2-carboxamide] | > 73 | > 10 | – | > 12 | –
23 | NCC(NC(=O)c1ccc(-c2ncc(Cl)cn2)[nH]1)c1nc(CO)cs1 (centres unmarked) [Compound 45, N-(2-Amino-1-(4-(hydroxymethyl)thiazol-2-yl)ethyl)-5-(5-chloropyrimidin-2-yl)-1H-pyrrole-2-carboxamide] | > 66 | > 10 | – | > 15.8 | –
24 | COc1cc(-c2ccc(C(=O)NC(CN)c3nc(CO)cs3)[nH]2)ccn1 (centres unmarked) [Compound 47, N-(2-Amino-1-(4-(hydroxymethyl)thiazol-2-yl)ethyl)-5-(2-methoxypyridin-4-yl)-1H-pyrrole-2-carboxamide] | > 133 | > 10 | – | > 11 | –
25 | NCC(NC(=O)c1ccc(-c2ccc(C(F)(F)F)cn2)[nH]1)c1cnc(CO)s1 (centres unmarked) [Compound 57, N-(2-Amino-1-(2-(hydroxymethyl)thiazol-5-yl)ethyl)-5-(5-(trifluoromethyl)pyridin-2-yl)-1H-pyrrole-2-carboxamide] | > 122 | 2.1 ± 0.4 | – | – | –
26 | NCC(NC(=O)c1ccc(-c2ccc(Cl)cn2)[nH]1)c1cnc(CO)s1 (centres unmarked) [Compound 59, N-(2-Amino-1-(2-(hydroxymethyl)thiazol-5-yl)ethyl)-5-(5-chloropyridin-2-yl)-1H-pyrrole-2-carboxamide] | > 106 | – | – | ~26 | –
27 | Cc1cc(-c2ccc(C(F)(F)F)cn2)[nH]c1C(=O)NC(CN)c1cnc(CO)s1 (centres unmarked) [Compound 61, N-(2-Amino-1-(2-(hydroxymethyl)thiazol-5-yl)ethyl)-3-methyl-5-(5-(trifluoromethyl)pyridin-2-yl)-1H-pyrrole-2-carboxamide] | 65 ± 4.9 | 2.3 ± 1 | – | – | –
28 | Cc1cc(-c2ccc(C(F)(F)F)cn2)[nH]c1C(=O)NC(CN)c1csc(CO)n1 (centres unmarked) [Compound 63, N-(2-Amino-1-(2-(hydroxymethyl)thiazol-4-yl)ethyl)-3-methyl-5-(5-(trifluoromethyl)pyridin-2-yl)-1H-pyrrole-2-carboxamide] | 42.3 ± 0.2 | 1.4 ± 0.1 | – | – | –
29 | NCC(NC(=O)c1ccc(-c2ccc(C(F)(F)F)cn2)[nH]1)c1csc(CO)n1 (centres unmarked) [Compound 65, N-(2-Amino-1-(2-(hydroxymethyl)thiazol-4-yl)ethyl)-5-(5-(trifluoromethyl)pyridin-2-yl)-1H-pyrrole-2-carboxamide] | 84.3 ± 1.4 | 1.6 ± 0.2 | – | – | –
30 | NCC(NC(=O)c1ccc(-c2ccc(Cl)cn2)[nH]1)c1csc(CO)n1 (centres unmarked) [Compound 67, N-(2-Amino-1-(2-(hydroxymethyl)thiazol-4-yl)ethyl)-5-(5-chloropyridin-2-yl)-1H-pyrrole-2-carboxamide] | > 106 | – | – | – | –
